Assay results taken from publication PMC8213057, “Targeting ALK2: An Open Science Approach to Developing Therapeutics for the Treatment of Diffuse Intrinsic Pontine Glioma” (Journal of Medicinal Chemistry, 2020).

What was measured:
ZAP70 = target: T1, ZAP70 (Homo sapiens, UniProt P43403); conditions: 1 μM; Run 1, Run 2
T1 sequence (P43403 1-619): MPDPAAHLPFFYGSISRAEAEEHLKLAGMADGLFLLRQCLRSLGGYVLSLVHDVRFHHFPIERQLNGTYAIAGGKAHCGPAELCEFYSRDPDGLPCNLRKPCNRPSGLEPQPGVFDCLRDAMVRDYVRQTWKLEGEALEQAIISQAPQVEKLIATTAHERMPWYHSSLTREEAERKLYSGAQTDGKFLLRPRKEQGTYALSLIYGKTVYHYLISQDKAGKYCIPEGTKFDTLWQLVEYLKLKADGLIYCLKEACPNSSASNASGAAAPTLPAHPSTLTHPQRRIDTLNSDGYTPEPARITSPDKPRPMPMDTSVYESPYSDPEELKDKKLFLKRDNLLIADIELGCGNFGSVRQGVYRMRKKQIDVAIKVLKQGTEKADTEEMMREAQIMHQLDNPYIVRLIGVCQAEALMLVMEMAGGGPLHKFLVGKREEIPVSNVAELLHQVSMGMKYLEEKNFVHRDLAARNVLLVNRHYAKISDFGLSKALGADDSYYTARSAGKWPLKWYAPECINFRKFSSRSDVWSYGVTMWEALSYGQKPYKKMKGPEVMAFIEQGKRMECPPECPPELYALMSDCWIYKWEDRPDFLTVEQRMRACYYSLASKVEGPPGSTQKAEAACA

CDK3/cyclin E = CDK3/cyclin E (Homo sapiens, UniProt Q00526); conditions: 1 μM; Run 1, Run 2
CDK3/cyclin E, sequence (Q00526 whole entry): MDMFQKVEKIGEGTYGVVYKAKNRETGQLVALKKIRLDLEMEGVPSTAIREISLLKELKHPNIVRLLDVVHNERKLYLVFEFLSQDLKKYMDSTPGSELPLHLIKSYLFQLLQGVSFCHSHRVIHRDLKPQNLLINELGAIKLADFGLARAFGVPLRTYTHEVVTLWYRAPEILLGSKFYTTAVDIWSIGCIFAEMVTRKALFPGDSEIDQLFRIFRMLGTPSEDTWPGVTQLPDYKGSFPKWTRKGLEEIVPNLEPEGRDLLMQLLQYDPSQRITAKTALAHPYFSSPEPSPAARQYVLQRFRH
CDK3/cyclin E, sequence (P24864 whole entry, further chain): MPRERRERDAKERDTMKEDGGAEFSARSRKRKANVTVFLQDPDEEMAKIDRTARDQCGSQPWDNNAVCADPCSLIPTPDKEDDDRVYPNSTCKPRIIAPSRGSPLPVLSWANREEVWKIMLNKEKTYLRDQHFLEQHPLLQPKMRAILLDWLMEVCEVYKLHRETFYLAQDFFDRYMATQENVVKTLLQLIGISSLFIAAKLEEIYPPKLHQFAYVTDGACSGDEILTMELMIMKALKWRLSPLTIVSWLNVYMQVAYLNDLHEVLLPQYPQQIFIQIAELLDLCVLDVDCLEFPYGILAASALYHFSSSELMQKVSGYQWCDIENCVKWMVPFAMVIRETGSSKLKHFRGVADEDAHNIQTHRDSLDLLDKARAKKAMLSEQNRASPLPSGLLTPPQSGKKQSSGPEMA

HPK1/MAP4K1 = HPK1/MAP4K1 (Homo sapiens, UniProt Q92918); conditions: 1 μM; Run 1, Run 2
HPK1/MAP4K1, sequence (Q92918 whole entry): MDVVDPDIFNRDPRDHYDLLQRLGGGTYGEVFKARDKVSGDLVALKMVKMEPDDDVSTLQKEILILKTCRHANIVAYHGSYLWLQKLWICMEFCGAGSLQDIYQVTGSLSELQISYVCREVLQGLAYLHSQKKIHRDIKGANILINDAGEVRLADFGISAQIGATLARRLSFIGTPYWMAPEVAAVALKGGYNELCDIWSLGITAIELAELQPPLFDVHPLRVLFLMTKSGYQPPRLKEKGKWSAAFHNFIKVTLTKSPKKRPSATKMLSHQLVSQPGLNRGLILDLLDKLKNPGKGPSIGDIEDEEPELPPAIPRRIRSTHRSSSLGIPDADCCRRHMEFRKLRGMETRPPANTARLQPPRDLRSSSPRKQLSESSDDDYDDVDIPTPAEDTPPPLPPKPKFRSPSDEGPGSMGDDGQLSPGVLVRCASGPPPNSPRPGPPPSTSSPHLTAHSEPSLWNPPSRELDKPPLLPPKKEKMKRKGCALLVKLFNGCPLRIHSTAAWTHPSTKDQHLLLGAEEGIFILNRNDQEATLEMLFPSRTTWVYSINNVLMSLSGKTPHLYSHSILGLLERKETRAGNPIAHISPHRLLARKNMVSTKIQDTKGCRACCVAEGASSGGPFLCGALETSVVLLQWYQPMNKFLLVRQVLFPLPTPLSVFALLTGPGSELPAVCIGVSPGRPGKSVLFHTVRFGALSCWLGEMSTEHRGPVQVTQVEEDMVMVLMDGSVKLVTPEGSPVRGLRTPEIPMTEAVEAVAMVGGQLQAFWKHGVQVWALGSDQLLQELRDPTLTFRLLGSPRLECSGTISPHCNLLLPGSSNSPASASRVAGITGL

c-MER = target: T2, c-MER (Homo sapiens, UniProt Q12866); test: biochemical; conditions: read-out: % enzyme activity, 1 μM; Run 1, Run 2
T2 sequence (Q12866 21-999): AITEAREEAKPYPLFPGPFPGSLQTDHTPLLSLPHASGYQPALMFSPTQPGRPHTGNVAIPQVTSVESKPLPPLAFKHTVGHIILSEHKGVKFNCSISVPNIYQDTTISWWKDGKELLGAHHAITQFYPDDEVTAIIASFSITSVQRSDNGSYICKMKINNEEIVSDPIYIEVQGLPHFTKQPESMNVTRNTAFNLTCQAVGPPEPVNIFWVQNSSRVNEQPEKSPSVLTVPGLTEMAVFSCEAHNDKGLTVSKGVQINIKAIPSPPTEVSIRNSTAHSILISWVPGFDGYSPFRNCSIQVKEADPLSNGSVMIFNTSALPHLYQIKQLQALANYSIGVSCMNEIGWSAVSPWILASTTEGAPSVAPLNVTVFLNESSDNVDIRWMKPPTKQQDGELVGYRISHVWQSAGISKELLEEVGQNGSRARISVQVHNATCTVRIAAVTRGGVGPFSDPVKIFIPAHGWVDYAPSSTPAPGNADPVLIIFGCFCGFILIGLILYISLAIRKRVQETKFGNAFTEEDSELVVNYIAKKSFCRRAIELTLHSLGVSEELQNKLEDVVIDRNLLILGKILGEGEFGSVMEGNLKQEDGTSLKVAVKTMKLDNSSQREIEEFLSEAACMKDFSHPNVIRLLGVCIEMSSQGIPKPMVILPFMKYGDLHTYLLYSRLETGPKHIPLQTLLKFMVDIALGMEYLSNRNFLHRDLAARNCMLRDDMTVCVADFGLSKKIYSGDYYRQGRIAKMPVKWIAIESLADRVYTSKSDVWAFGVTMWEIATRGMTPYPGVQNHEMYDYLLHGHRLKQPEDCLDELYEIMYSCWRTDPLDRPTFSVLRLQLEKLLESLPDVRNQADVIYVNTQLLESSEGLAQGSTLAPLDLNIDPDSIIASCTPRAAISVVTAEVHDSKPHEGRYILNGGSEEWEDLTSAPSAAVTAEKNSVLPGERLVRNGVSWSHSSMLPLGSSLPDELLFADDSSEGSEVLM

SRPK2 = SRPK2 (Homo sapiens, UniProt P78362); test: biochemical; conditions: read-out: % enzyme activity, 1 μM; Run 1, Run 2
SRPK2, sequence (P78362 whole entry): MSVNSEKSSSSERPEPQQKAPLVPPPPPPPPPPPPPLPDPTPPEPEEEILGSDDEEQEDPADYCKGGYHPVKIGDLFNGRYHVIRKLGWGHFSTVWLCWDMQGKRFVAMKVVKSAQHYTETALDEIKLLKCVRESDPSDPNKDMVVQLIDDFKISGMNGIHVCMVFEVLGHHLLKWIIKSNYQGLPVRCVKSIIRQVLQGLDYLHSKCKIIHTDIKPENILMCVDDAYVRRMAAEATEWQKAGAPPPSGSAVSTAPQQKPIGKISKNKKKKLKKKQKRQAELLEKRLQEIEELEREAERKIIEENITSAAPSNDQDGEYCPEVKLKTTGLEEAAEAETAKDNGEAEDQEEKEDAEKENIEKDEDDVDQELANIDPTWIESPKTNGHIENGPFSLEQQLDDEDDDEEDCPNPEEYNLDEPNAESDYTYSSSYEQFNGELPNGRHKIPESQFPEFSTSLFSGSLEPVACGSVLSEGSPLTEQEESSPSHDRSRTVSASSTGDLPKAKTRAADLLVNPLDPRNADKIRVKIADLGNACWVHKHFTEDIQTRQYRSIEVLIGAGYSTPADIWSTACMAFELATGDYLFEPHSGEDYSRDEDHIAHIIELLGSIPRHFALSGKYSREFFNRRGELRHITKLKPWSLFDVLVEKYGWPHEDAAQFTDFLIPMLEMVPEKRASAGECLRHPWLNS

MEKK3 = target: T3, MEKK3 (Homo sapiens, UniProt Q99759); test: biochemical; conditions: read-out: % enzyme activity, 1 μM; Run 1, Run 2
T3 sequence (Q99759 1-626): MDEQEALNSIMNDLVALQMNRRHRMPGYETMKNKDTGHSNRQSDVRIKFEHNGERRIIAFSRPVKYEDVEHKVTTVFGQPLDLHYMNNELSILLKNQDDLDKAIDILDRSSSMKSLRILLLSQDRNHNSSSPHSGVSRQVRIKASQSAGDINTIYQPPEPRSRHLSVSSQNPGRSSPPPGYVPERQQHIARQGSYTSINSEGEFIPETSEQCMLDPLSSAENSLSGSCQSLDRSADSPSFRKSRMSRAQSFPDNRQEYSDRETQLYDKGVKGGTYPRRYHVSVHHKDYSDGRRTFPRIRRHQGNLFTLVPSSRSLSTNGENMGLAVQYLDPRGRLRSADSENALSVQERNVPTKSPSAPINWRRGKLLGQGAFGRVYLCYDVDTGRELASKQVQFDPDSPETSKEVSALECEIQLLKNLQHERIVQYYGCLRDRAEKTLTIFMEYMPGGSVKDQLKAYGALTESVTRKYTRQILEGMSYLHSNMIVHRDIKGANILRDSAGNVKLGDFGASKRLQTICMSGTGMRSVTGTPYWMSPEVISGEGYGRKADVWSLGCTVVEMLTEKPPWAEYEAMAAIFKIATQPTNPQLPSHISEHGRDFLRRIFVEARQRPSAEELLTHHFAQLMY

GRK7 = target: T4, GRK7 (Homo sapiens, UniProt Q8WTQ7); test: biochemical; conditions: read-out: % enzyme activity, 1 μM; Run 1, Run 2
T4 sequence (Q8WTQ7 1-553): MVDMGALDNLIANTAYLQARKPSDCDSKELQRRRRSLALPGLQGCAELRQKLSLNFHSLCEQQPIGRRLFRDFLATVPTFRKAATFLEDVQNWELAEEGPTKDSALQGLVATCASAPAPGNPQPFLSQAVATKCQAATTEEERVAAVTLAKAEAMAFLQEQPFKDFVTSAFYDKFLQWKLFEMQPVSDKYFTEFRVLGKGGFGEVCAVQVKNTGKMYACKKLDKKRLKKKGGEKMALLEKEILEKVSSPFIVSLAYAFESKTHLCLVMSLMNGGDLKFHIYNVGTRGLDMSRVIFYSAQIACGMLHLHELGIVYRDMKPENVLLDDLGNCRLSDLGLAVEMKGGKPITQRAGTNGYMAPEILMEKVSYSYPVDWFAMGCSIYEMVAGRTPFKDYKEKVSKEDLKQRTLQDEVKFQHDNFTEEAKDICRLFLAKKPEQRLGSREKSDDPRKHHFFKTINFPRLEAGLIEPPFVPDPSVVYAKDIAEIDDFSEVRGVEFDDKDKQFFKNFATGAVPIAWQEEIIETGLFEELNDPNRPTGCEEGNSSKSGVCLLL

Row | SMILES | % enzyme activity (ZAP70) [%] | % enzyme activity (CDK3/cyclin E) [%] | % enzyme activity (HPK1/MAP4K1) [%] | remaining activity at 1 µM (c-MER) [%] | remaining activity at 1 µM (SRPK2) [%] | remaining activity at 1 µM (MEKK3) [%] | remaining activity at 1 µM (GRK7) [%]
1 | COc1cc(-c2cncc(-c3ccc(N4CCN(C)CC4)cc3)c2C)cc(F)c1C(N)=O [Compound 26a, 2-Fluoro-6-methoxy-4-(4-methyl-5-(4-(4-methylpiperazin-1-yl)phenyl)pyridin-3-yl)benzamide] | 94.79 | 81.63 | 57.53 | 100 | 97.8 | 98 | 95.1
2 | COc1cc(-c2cncc(-c3ccc(N4C[C@@H](C)N(C)[C@@H](C)C4)cc3)c2C)cc(F)c1C(N)=O [Compound 26c, 2-Fluoro-6-methoxy-4-(4-methyl-5-(4-((3R,5S)-3,4,5-trimethylpiperazin-1-yl)phenyl)pyridin-3-yl)benzamide] | 98.47 | 78.38 | 74.31 | 101 | 121 | 109 | 91.8
